Results from ChEMBL document CHEMBL4152249, “Alkoxyphenylthiazoles with broad-spectrum activity against multidrug-resistant gram-positive bacterial pathogens” (Eur J Med Chem, 2018).
Values after ≈ are worked out from the molar mass of the structure shown. Active and inactive are the calls of the source. The calls are words filed in the database; no cut-off is given here.

Key:
[1] = tested on: Staphylococcus aureus; assay: Antibacterial activity against methicillin-resistant Staphylococcus aureus 2658 RCMB after 20 hrs by broth microdilution assay; assay type: functional
[2] = tested on: Staphylococcus aureus; assay: Antibacterial activity against methicillin-resistant Staphylococcus aureus after 20 hrs by broth microdilution assay; assay type: functional
[3] = tested on: Staphylococcus aureus; assay: Bactericidal activity against vancomycin-resistant Staphylococcus aureus VRSA10 incubated for 20 hrs followed by re-plating on tryptic soy agar plates at 37 degC for 18 hrs by broth microdilution assay; assay type: functional
[4] = tested on: Staphylococcus aureus; assay: Bactericidal activity against Staphylococcus aureus USA400 NRS123 incubated for 20 hrs followed by re-plating on tryptic soy agar plates at 37 degC for 18 hrs by broth microdilution assay; assay type: functional
[5] = tested on: Enterococcus faecalis; assay: Bactericidal activity against vancomycin-resistant Enterococcus faecalis ATCC 51299 incubated for 20 hrs followed by re-plating on tryptic soy agar plates at 37 degC for 18 hrs by broth microdilution assay; assay type: functional
[6] = tested on: Streptococcus pneumoniae; assay: Antibacterial activity against methicillin-resistant Streptococcus pneumoniae ATCC 700677 after 20 hrs by broth microdilution assay; assay type: functional; conditions: ATCC 700677, 20 h
[7] = tested on: Staphylococcus aureus; assay: Bactericidal activity against methicillin-resistant Staphylococcus aureus NRS385 incubated for 20 hrs followed by re-plating on tryptic soy agar plates at 37 degC for 18 hrs by broth microdilution assay; assay type: functional
[8] = tested on: Staphylococcus aureus; assay: Bactericidal activity against methicillin-resistant Staphylococcus aureus NRS386 incubated for 20 hrs followed by re-plating on tryptic soy agar plates at 37 degC for 18 hrs by broth microdilution assay; assay type: functional
[9] = tested on: Staphylococcus aureus; assay: Bactericidal activity against Staphylococcus aureus USA300 NRS384 incubated for 20 hrs followed by re-plating on tryptic soy agar plates at 37 degC for 18 hrs by broth microdilution assay; assay type: functional
[10] = tested on: Staphylococcus aureus; assay: Bactericidal activity against vancomycin-resistant Staphylococcus aureus VRSA12 incubated for 20 hrs followed by re-plating on tryptic soy agar plates at 37 degC for 18 hrs by broth microdilution assay; assay type: functional
[11] = tested on: Staphylococcus aureus; assay: Antibacterial activity against Staphylococcus aureus after 20 hrs by broth microdilution assay; assay type: functional
[12] = tested on: Staphylococcus aureus; assay: Antibacterial activity against methicillin-resistant Staphylococcus aureus NRS385 after 20 hrs by broth microdilution assay; assay type: functional; conditions: NRS385, 20 h
[13] = tested on: Staphylococcus aureus; assay: Bactericidal activity against methicillin-sensitive Staphylococcus aureus NRS107 incubated for 20 hrs followed by re-plating on tryptic soy agar plates at 37 degC for 18 hrs by broth microdilution assay; assay type: functional
[14] = tested on: Enterococcus faecium; assay: Bactericidal activity against vancomycin-resistant Enterococcus faecium ATCC 700221 incubated for 20 hrs followed by re-plating on tryptic soy agar plates at 37 degC for 18 hrs by broth microdilution assay; assay type: functional
[15] = tested on: Enterococcus faecalis; assay: Antibacterial activity against vancomycin-resistant Enterococcus faecalis ATCC 51299 after 20 hrs by broth microdilution assay; assay type: functional; conditions: ATCC 51299, 20 h
[16] = tested on: Streptococcus pneumoniae; assay: Bactericidal activity against cephalosporin-resistant Streptococcus pneumoniae ATCC 51916 incubated for 20 hrs followed by re-plating on tryptic soy agar plates at 37 degC for 18 hrs by broth microdilution assay; assay type: functional
[17] = tested on: Staphylococcus aureus; assay: Bactericidal activity against linezolid-resistant Staphylococcus aureus NRS119 incubated for 20 hrs followed by re-plating on tryptic soy agar plates at 37 degC for 18 hrs by broth microdilution assay; assay type: functional
[18] = tested on: Streptococcus pneumoniae; assay: Bactericidal activity against methicillin-resistant Streptococcus pneumoniae ATCC 700677 incubated for 20 hrs followed by re-plating on tryptic soy agar plates at 37 degC for 18 hrs by broth microdilution assay; assay type: functional
[19] = tested on: Listeria monocytogenes; assay: Bactericidal activity against Listeria monocytogenes ATCC 19111 incubated for 20 hrs followed by re-plating on tryptic soy agar plates at 37 degC for 18 hrs by broth microdilution assay; assay type: functional
[20] = tested on: Staphylococcus epidermidis; assay: Antibacterial activity against methicillin-resistant Staphylococcus epidermidis NRS101 after 20 hrs by broth microdilution assay; assay type: functional; conditions: NRS101, 20 h
[21] = tested on: Staphylococcus aureus; assay: Antibacterial activity against vancomycin-resistant Staphylococcus aureus VRSA10 after 20 hrs by broth microdilution assay; assay type: functional; conditions: VRSA10, 20 h
[22] = tested on: Streptococcus pneumoniae; assay: Antibacterial activity against cephalosporin-resistant Streptococcus pneumoniae ATCC 51916 after 20 hrs by broth microdilution assay; assay type: functional; conditions: ATCC 51916, 20 h
[23] = tested on: Enterococcus faecium; assay: Antibacterial activity against vancomycin-resistant Enterococcus faecium ATCC 700221 after 20 hrs by broth microdilution assay; assay type: functional; conditions: ATCC 700221, 20 h
[24] = tested on: Staphylococcus aureus; assay: Antibacterial activity against vancomycin-resistant Staphylococcus aureus VRSA12 after 20 hrs by broth microdilution assay; assay type: functional; conditions: VRSA12, 20 h
[25] = tested on: Staphylococcus aureus; assay: Antibacterial activity against methicillin-resistant Staphylococcus aureus NRS386 after 20 hrs by broth microdilution assay; assay type: functional; conditions: NRS386, 20 h
[26] = tested on: Staphylococcus epidermidis; assay: Bactericidal activity against methicillin-resistant Staphylococcus epidermidis NRS101 incubated for 20 hrs followed by re-plating on tryptic soy agar plates at 37 degC for 18 hrs by broth microdilution assay; assay type: functional
[27] = tested on: Listeria monocytogenes; assay: Antibacterial activity against Listeria monocytogenes ATCC 19111 after 20 hrs by broth microdilution assay; assay type: functional; conditions: ATCC 19111, 20 h
[28] = tested on: Caco-2; assay: Cytotoxicity against human Caco2 cells assessed as effect on cell viability up to 64 ug/ml after 2 hrs by MTS assay; assay type: cell-based; conditions: caco-2, 2 h
[29] = tested on: Staphylococcus aureus; assay: Antibacterial activity against methicillin-resistant Staphylococcus aureus USA400 NRS123 after 1 passages over 2 weeks by broth microdilution method; assay type: functional, organism-based

CCCCCCCOc1ccc(-c2nc(C)c(-c3ccnc(NC(=N)N4CCOCC4)n3)s2)cc1
MIC [1]: 6.25 µg/mL (≈ 12.6 µM)

CCCCCCCOc1ccc(-c2nc(C)c(-c3ccnc(NC(=N)NC)n3)s2)cc1
MIC [1]: > 50 µg/mL

CCCCCCCOc1ccc(-c2nc(C)c(-c3ccnc(NN)n3)s2)cc1
MIC [2]: 32 µg/mL (≈ 80.5 µM) | MBC [3]: > 64 µg/mL | MBC [4]: > 64 µg/mL | MBC [5]: > 64 µg/mL | MIC [6]: > 64 µg/mL | MBC [7]: 64 µg/mL (≈ 161 µM) | MBC [8]: > 64 µg/mL | MIC [1]: 3.12 µg/mL (≈ 7.85 µM) | MBC [9]: > 64 µg/mL | MBC [10]: > 64 µg/mL | MIC [11]: 16 µg/mL (≈ 40.2 µM) | MIC [12]: 32 µg/mL (≈ 80.5 µM) | MBC [13]: > 64 µg/mL | MBC [14]: > 64 µg/mL | MIC [15]: > 64 µg/mL | MBC [16]: > 64 µg/mL | MBC [17]: 64 µg/mL (≈ 161 µM) | MBC [18]: > 64 µg/mL | MBC [19]: > 64 µg/mL | MIC [20]: 64 µg/mL (≈ 161 µM) | MIC [21]: 64 µg/mL (≈ 161 µM) | MIC [22]: > 64 µg/mL | MIC [23]: 64 µg/mL (≈ 161 µM) | MIC [24]: 64 µg/mL (≈ 161 µM) | MIC [25]: 32 µg/mL (≈ 80.5 µM) | MBC [26]: 64 µg/mL (≈ 161 µM) | MIC [27]: 16 µg/mL (≈ 40.2 µM)

CCCCCCCOc1ccc(-c2nc(C)c(-c3ccnc(N4CC(O)C4)n3)s2)cc1
MIC [1]: 6.25 µg/mL (≈ 14.2 µM)

CCCCCCCCOc1ccc(-c2nc(C)c(-c3ccnc(NC(=N)N4CCOCC4)n3)s2)cc1
MIC [1]: 6.25 µg/mL (≈ 12.3 µM)

CCCCCCCCOc1ccc(-c2nc(C)c(-c3ccnc(NC(=N)N(C)C)n3)s2)cc1
MIC [2]: 8 to 16 µg/mL (≈ 17.1 to 34.3 µM) | MBC [3]: 16 µg/mL (≈ 34.3 µM) | MBC [4]: 16 µg/mL (≈ 34.3 µM) | MBC [5]: 32 µg/mL (≈ 68.6 µM) | MIC [6]: 16 µg/mL (≈ 34.3 µM) | MBC [7]: 16 µg/mL (≈ 34.3 µM) | MBC [8]: 16 µg/mL (≈ 34.3 µM) | MIC [1]: 1.56 µg/mL (≈ 3.34 µM) | MBC [9]: 16 µg/mL (≈ 34.3 µM) | MBC [10]: 16 µg/mL (≈ 34.3 µM) | MIC [11]: 8 µg/mL (≈ 17.1 µM) | MIC [12]: 16 µg/mL (≈ 34.3 µM) | MBC [13]: 8 µg/mL (≈ 17.1 µM) | MBC [14]: 8 µg/mL (≈ 17.1 µM) | MIC [15]: 32 µg/mL (≈ 68.6 µM) | MBC [16]: 16 µg/mL (≈ 34.3 µM) | MBC [17]: 16 µg/mL (≈ 34.3 µM) | MBC [18]: 32 µg/mL (≈ 68.6 µM) | MBC [19]: 8 µg/mL (≈ 17.1 µM) | MIC [20]: 4 µg/mL (≈ 8.57 µM) | MIC [21]: 16 µg/mL (≈ 34.3 µM) | MIC [22]: 16 µg/mL (≈ 34.3 µM) | MIC [23]: 8 µg/mL (≈ 17.1 µM) | MIC [24]: 16 µg/mL (≈ 34.3 µM) | MIC [25]: 16 µg/mL (≈ 34.3 µM) | MBC [26]: 8 µg/mL (≈ 17.1 µM) | MIC [27]: 4 µg/mL (≈ 8.57 µM) | Activity [28]: Non-Toxic

CCCCCCCCOc1ccc(-c2nc(C)c(-c3ccnc(NC(=N)N)n3)s2)cc1
MIC [1]: 1.56 µg/mL (≈ 3.56 µM)

CCCCCCCCOc1ccc(-c2nc(C)c(-c3ccnc(NN)n3)s2)cc1
MIC [1]: 3.12 µg/mL (≈ 7.58 µM)

CCCCCCCCOc1ccc(-c2nc(C)c(-c3ccnc(N)n3)s2)cc1
MIC [1]: > 50 µg/mL

CO[C@H]1/C=C/O[C@@]2(C)Oc3c(C)c(O)c4c(O)c(c(/C=N/N5CCN(C)CC5)c(O)c4c3C2=O)NC(=O)/C(C)=C\C=C\[C@H](C)[C@H](O)[C@@H](C)[C@@H](O)[C@@H](C)[C@H](OC(C)=O)[C@@H]1C
Activity [29]: inactive
